One series has as its target T1, CCK-1 receptor (Homo sapiens, UniProt P32238).
T1 construct: expressed in transfected cells; membranes
T1 sequence (P32238 1-428): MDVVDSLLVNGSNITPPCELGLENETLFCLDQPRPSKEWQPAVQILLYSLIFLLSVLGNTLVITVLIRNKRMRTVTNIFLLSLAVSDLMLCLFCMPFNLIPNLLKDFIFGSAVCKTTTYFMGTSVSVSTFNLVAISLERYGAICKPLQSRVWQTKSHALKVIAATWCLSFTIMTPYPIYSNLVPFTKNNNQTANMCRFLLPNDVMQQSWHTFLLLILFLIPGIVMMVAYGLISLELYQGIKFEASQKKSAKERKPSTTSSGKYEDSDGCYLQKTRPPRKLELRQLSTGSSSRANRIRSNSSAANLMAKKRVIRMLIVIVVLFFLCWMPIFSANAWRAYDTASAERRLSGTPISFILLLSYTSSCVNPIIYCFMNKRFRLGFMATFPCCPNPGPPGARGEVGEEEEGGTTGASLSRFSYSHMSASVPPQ
The series is described as follows: CCK-1 receptor radioligand binding assay ([125I]-BH-CCK-8S competition, membranes of stably transfected CHO-K1 cells). As to the method:
CHO-K1 cells that had undergone stable transfection with the CCK-1 receptor were grown in DMEM supplemented with L-glutamine (2 mM), penicillin (50 units/mL) and streptomycin (50 μg/mL). Cells were cultured under continuous G418 selection (2 mM) and were harvested using a rubber cell scraper. CHO-K1 cells were sub-cultured a maximum of ten times before being reseeded from the original stocks.
Membranes were prepared from the stably transfected CHO-K1 cells. Frozen cell pellets (−40° C.) were thawed in 14 mL of buffer A (10 mM HEPES, 130 mM NaCl, 4.7 mM KCl, 5 mM MgCl, 1 mM EGTA and 15.4 mg/100 mL bacitracin at pH 7.2), adapted from Harper et al. (Br. J. Pharmacol. (1996) 118, pp 1717-1726). The thawed pellets were homogenized using a Polytron PT-10 (7×1 s). […]
All assays were conducted in 96-well plates (GF/B millipore filter plates) using buffer A, with 0.3 μM PD-134,308, for the dilutions. […] Total binding of [125I]—BH—CCK-8S was determined in the presence of 15 μL of buffer A. Non-specific binding of [125I]—BH—CCK-8S was determined in the presence of 15 μL of 100 μM 2-naphthalenesulphonyl L-aspartyl-(2-phenethyl)amide (2-NAP: see R. A. Hull et al., Br. J. Pharmacol. (1993) 108, pp 734-740), a CCK-1 receptor selective antagonist that is structurally unrelated to the radioligand [125I]—BH—CCK-8S. […] Bound radioactivity was determined using a gamma counter (count time=1 min). […]

Counter-ions that a name gives are not always drawn. Like-named read-outs stand apart in the source and are kept apart here.

In general, melting point refers to the temperature, or range, at which the solid turns liquid.

As for `COc1ccc(-n2nc(CC(C(=O)O)c3cccc4ccccc34)cc2-c2ccc3c(c2)OCO3)cc1` (racemic) [Example 27, 3-[5-Benzo[1,3]dioxol-5-yl-1-(4-methoxy-phenyl)-1H-pyrazol-3-yl]-2-naphthalen-1-yl-propionic acid], on CCK-1 receptor ([125I]-BH-CCK-8S competition, membranes of CHO-K1 cells stably transfected with CCK-1 receptor, 0.3 μM PD-134,308 present, read-out: pKi (converted)), the Ki was 6.31 nM. With `COc1ccc(-n2nc(C[C@H](C([O])=O)c3cccc(C)c3)cc2-c2ccc(Cl)c(Cl)c2)cc1` (as salt: sodium) [Example 1, (S)-Sodium; 3-[5-(3,4-dichloro-phenyl)-1-(4-methoxy-phenyl)-1H-pyrazol-3-yl]-2-m-tolyl-propionate], the melting point is 295.5 to 297.5 °C. Take `COc1ccc(-n2nc(C[C@H](C([O])=O)c3cccc(C)c3)cc2-c2ccc(Cl)c(Cl)c2)cc1` [Example 1, (S)-Sodium; 3-[5-(3,4-dichloro-phenyl)-1-(4-methoxy-phenyl)-1H-pyrazol-3-yl]-2-m-tolyl-propionate]: the Ki on CCK-1 receptor is 10 nM.

Source of the values: patent publication US20050026903A1, “CCK-1 receptor modulators” (priority 2003, published 2005).
